Patent publication US11945834B2, “Cyclic dinucleotides as anticancer agents” (BRISTOL-MYERS SQUIBB COMPANY, priority 2018, dated 2024)
Like-named read-outs stand apart in the source and are kept apart here.

Tests used:
[1] = test system: IRF pathway in THP1-Dual cells (STING agonists); assay: STING THP1 reporter assay, IRF pathway (Lucia luciferase); type: cell-based; settings: 10% human plasma, luciferase readout, 100% = 100 μM cGAMP, read-out: THP1 Reporter Assays EC50 (μM) IRF3
Source text: (§1) THP1-Dual™ cells were derived from the human THP-1 monocyte cell line by stable integration of two inducible reporter constructs. To this end, THP1-Dual™ cells allow the simultaneous study of the NF-κB pathway, by monitoring the activity of SEAP, and the IRF pathway by assessing the activity of a secreted luciferase (Lucia). Both reporter proteins are readily measurable in the cell culture supernatant when using QUANTI-Blue™, a SEAP detection reagent, and QUANTI-Luc™, a luciferase detection reagent.
(§2) THP1-Dual™ cells induce the activation of NF-κB in response to STING agonists. They also trigger the IRF pathway upon stimulation with STING agonists, such as cGAMP. Here, the THP-1-Dual cells were used to assess STING binders for function on the cellular level.
(§3) Serial dilutions of compounds in DMSO were added to low volume 384 well plates at 100 nl/well using an ECHO acoustic dispenser (Labcyte, model 550) to achieve final starting concentration of 100 μM in cell suspension. THP-1 Dual™ STING reporter cells (Invivogen, Dual cells cat #THPD-nfis) were added to the plates with compounds at 15,000 cells in 10 μL per well in RPMI media (Gibco, cat #11875) containing 10% human plasma in a low volume 384-well black wall clear bottom tissue culture plate (Corning, cat #3542) for SEAP assay and low volume solid white plate (Corning, cat #3826) for luciferase assay. One column of the plate was reserved for treatment with cGAMP at 100 μM for 100% activation calculation and one column for no treatment (DMSO only) for baseline activation. Plates were then incubated in 37° C. incubator at 5% CO2 for 20 hours.
(§4) In the SEAP assay, 5 μl of 2× QuantiBlue (Invivogen, cat #Rep-qb2) is added to 384 well black plates seeded with THP1 cells and incubated at 37° C. for 2 hours. Plates were read on the Envision (Perkin Elmer) at 620 nm wavelength (OD620). In the luciferase assay, 5 μl of Quantiluc (Invivogen, Rep-qlc2) is added to white 384 well plates seeded with THP1 cells and read at 5 minutes on the Envision (Perkin Elmer) using a luminescence protocol (RLU). For both cell lines, 100% activation was determined by value (RLU) of THP-1 Dual STING cells stimulated with 100 μM cGAMP (Invivogen, cat #TLRL-NACGA23-5).

[2] = test system: NF-κB pathway in THP1-Dual cells (STING agonists); assay: STING THP1 reporter assay, NF-κB pathway (SEAP); type: cell-based; settings: 10% human plasma, SEAP readout, 100% = 100 μM cGAMP, read-out: THP1 Reporter Assays EC50 (μM) NFkB
Source text: as §1, §2, §3, §4

[3] = target: T1, STING WT: His-TVMV-S-hSTING(155-341)-H232R (Homo sapiens, UniProt Q86WV6, H232R); assay: STING HTRF binding assay, STING WT; settings: 20 nM His-tagged STING cytoplasmic domain WT, 200 nM fluorescein-labeled cGAMP analog probe, one hour; read-out: HTRF Binding Assays IC50 (μM) WT
T1 construct: STING WT: His-TVMV-S-hSTING(155-341)-H232R
T1 sequence (Q86WV6 with tags, fused parts or gaps H232R): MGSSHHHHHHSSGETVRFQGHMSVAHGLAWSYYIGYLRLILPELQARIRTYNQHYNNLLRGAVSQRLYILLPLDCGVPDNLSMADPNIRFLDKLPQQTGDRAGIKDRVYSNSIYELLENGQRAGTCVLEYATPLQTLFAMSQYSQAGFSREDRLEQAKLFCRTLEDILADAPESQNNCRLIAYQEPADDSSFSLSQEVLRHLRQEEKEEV
Experimental: (§5) A time resolved FRET-based competition binding assay was used to assess test article binding to STING WT and STING AQ. His-tagged STING cytoplasmic domain (WT or AQ) at a concentration of 20 nM was incubated with 2.5 nM Tb-labeled anti-His antibody, test compound, and fluorescein-labeled cGAMP analog probe (BioLog cat. no. C195) at a concentration of 200 nM (STING WT) or 40 nM (STING AQ) in PBS containing 0.005% Tween-20 and 0.1% BSA for one hour. Fluorescence at 495 nm and 520 nm was measured using an EnVision microplate reader to quantify FRET between Tb-labeled anti-His antibody and fluorescein-labeled probe. Background was defined as the signal obtained in the absence of STING protein, and background subtracted FRET ratios were normalized to the maximum signal obtained in the absence of test compound. These values were converted to a percent inhibition. Percent inhibition was determined for test compounds at 11 concentrations. The IC50, defined as the concentration of competing test compound needed to reduce specific binding of the probe by 50%, was calculated using the 4 parameter logistic equation to fit the data

[4] = target: T2, STING AQ: His-TVMV-S-hSTING(155-341)-G230A-R293Q (Homo sapiens, UniProt Q86WV6, G230A/H232R/R293Q); assay: STING HTRF binding assay, STING AQ; settings: 20 nM His-tagged STING cytoplasmic domain AQ, 40 nM fluorescein-labeled cGAMP analog probe, one hour; read-out: HTRF Binding Assays IC50 (μM) AQ
T2 construct: STING AQ: His-TVMV-S-hSTING(155-341)-G230A-R293Q
T2 sequence (Q86WV6 with tags, fused parts or gaps G230A/H232R/R293Q): as the sequence (Q86WV6 with tags, fused parts or gaps H232R) above, with G99A, R162Q counted along it
Experimental: as §5

Compound	EC50 ([1]; 20 hours)	EC50 ([2]; 20 hours)	IC50 [3]	IC50 [4]	EC50 ([1]; Homo sapiens, THP1-Dual, 20 h)	EC50 ([2]; Homo sapiens, THP1-Dual, 20 h)
C=C1[C@H]2OP(=O)(S)OC[C@H]3O[C@@H](n4cnc5c(N)ncnc54)[C@H](F)[C@@H]3OP(=O)(S)OC[C@H]1O[C@H]2c1ccnc(C(N)=O)c1 (single isomer, unassigned) [Example 3-2]	> 100 µM	> 100 µM	40.9 µM	1.64 µM	–	–
NC(=O)c1cc([C@@H]2O[C@@H]3COP(=O)(S)O[C@H]4[C@@H](F)[C@H](n5cnc6c5ncn5ccnc65)O[C@@H]4COP(=O)(S)O[C@@H]2[C@@H]3O)ccn1 (single isomer, unassigned) [Example 5-2]	–	–	93.4 µM	14 µM	0.14 µM	0.38 µM
CNC(=O)c1cc([C@@H]2O[C@@H]3COP(=O)(S)O[C@H]4[C@@H](F)[C@H](n5cnc6c(N)ncnc65)O[C@@H]4COP(=O)(S)O[C@@H]2[C@@H]3O)ccn1 (single isomer, unassigned) [Example 2-4]	> 100 µM	–	92.3 µM	4.85 µM	–	–
CNC(=O)c1cc([C@@H]2O[C@@H]3COP(=O)(S)O[C@H]4[C@@H](F)[C@H](n5cnc6c(N)ncnc65)O[C@@H]4COP(=O)(S)O[C@@H]2[C@@H]3O)ccn1 (single isomer, unassigned) [Example 2-1]	–	–	10.3 µM	0.6 µM	> 100 µM	> 100 µM
C=C1[C@H]2OP(=O)(S)OC[C@H]3O[C@@H](n4cnc5c(N)ncnc54)[C@H](F)[C@@H]3OP(=O)(S)OC[C@H]1O[C@H]2c1ccnc(C(N)=O)c1 (single isomer, unassigned) [Example 3-3]	> 100 µM	> 100 µM	14.4 µM	1.03 µM	–	–

Stronger by IC50 [3], values ahead:

EC50 ([1]; 20 hours)	EC50 ([2]; 20 hours)	IC50 [3]	IC50 [4]	EC50 ([1]; Homo sapiens, THP1-Dual, 20 h)	EC50 ([2]; Homo sapiens, THP1-Dual, 20 h)	Compound
7.4 µM	19.3 µM	1.21 µM	0.09 µM	–	–	C=C1[C@H]2OP(=O)(S)OC[C@H]3O[C@@H](n4cnc5c(N)ncnc54)[C@H](F)[C@@H]3OP(=O)(S)OC[C@H]1O[C@H]2c1ccnc(C(N)=O)c1 (single isomer, unassigned) [Example 3-4]
9.23 µM	22.6 µM	0.78 µM	0.04 µM	–	–	C=C1[C@H]2OP(=O)(S)OC[C@H]3O[C@@H](n4cnc5c(N)ncnc54)[C@H](F)[C@@H]3OP(=O)(S)OC[C@H]1O[C@H]2c1ccnc(C(N)=O)c1 (single isomer, unassigned) [Example 3-1]
19 µM	57.1 µM	0.66 µM	0.05 µM	–	–	NC(=O)c1cc([C@@H]2O[C@@H]3COP(=O)(S)O[C@H]4[C@@H](F)[C@H](n5cnc6c(N)ncnc65)O[C@@H]4COP(=O)(S)O[C@@H]2[C@@H]3F)ccn1 (single isomer, unassigned) [Example 4-1]
0.37 µM	1.32 µM	0.09 µM	0.03 µM	–	–	NC(=O)c1cc([C@@H]2O[C@@H]3COP(=O)(S)O[C@H]4[C@@H](F)[C@H](n5cnc6c(N)ncnc65)O[C@@H]4COP(=O)(S)O[C@@H]2[C@@H]3F)ccn1 (single isomer, unassigned) [Example 4-2]
–	–	0.09 µM	0.01 µM	4.94 µM	8.05 µM	NC(=O)c1cc([C@@H]2O[C@@H]3COP(=O)(S)O[C@H]4[C@@H](F)[C@H](n5cnc6c(N)ncnc65)O[C@@H]4COP(=O)(S)O[C@@H]2[C@@H]3O)ccn1 (single isomer, unassigned) [Example 1-1]
